Measurements: PubChem BioAssay AID1919006 (Molecular Pharmacology Branch, DTP, NCI, 2023)
“And” between values parts separate entries of the source, which are not always exact repeats. Equal values may be shown once.

Test system: 885512-296-R-J2-PDC complex spheroid growth, % test/control
Test: Anticancer human tumor 885512-296-R-J2-PDC patient-derived breast carcinoma cell line growth inhibition [AhR]
Conditions: for viability, T/C: stronger effect = lower value
Text: Multicellular complex tumor spheroid response to aryl hydrocarbon receptor antagonists in combination with a variety of drugs and investigational agents in selected tumor cell lines
The current study was undertaken to assess response to aryl hydrocarbon receptor antagonists in combination with standard-of-care drugs and investigational agents in solid tumor complex spheroid models. Complex spheroids include a stromal component modeled by human endothelial cells (HUVEC) and fibroblasts modeled by human mesenchymal stem cells (MSCs). The concentration ranges selected for each drug and investigational agent were based upon clinically achievable concentrations if the clinical Cmax of the agent was known.
Compounds. The drugs and investigational agents: BAY 2416964 (NSC825713), GNF351 (NSC835774), CH-223191 (NSC835775), CPI-455 (NSC825282), aza-TdCyd (NSC777586), decitabine (NSC127716), belinostat (NSC758774), entinostat (NSC756642), pevonedistat (NSC761192), tazemetostat (NSC777109), talazoparib (NSC765396), olaparib (NSC753686), selinexor (NSC780203), nedisertib (M3814, NSC802822), bortezomib (NSC756655), venetoclax (NSC766270), doxorubicin (NSC123127), elimusertib (BAY189344, NSC800525), ceralasertib (AZD6738, NSC777638), TAK-243 (NSC785004), alisertib (NSC759677), etoposide (NSC141540), topotecan (NSC609699), eribulin (NSC707389), gemcitabine (NSC613327), carboplatin (NSC241240), cisplatin (NSC119875), and SN-38 (NSC673596) were obtained from the National Cancer Institute (NCI) Developmental Therapeutics Program Chemical Repository (32). The FDA-approved anticancer drug set is available from the Developmental Therapeutics Program at https://dtp.cancer.gov/organization/dscb/obtaining/available plates.htm. […] The stock solutions were prepared in dimethyl sulfoxide (DMSO, Sigma-Aldrich, St. Louis, MO, cat. D2650), except for the platinum compounds which were prepared in saline (Quality Biological, Gaithersburg, MD, cat. 114-055-101), at 800-fold the tested concentration and stored at -70 degrees C prior to their use. All drugs and investigational agents were tested over a range starting from a high concentration at or near the clinical Cmax and decreasing in half-log increments. If the clinical Cmax for an agent had not been determined, the highest concentration tested was 10 microM (Table 1).
Cell Culture. All cells were maintained in an incubator at 37 degrees C and 5% CO2 with 95% humidity. The PDC lines were cultured according to standard operating procedures established by the NCI PDMR (https://pdmr.cancer.gov). Briefly, all PDCs were thawed and cultured in Matrigel-coated flasks prepared with a working solution of 1X Ham's F-12 nutrient mix, without supplementation (Invitrogen, Waltham, MA, cat. 11765054), 100 U/mL penicillin-streptomycin (Invitrogen, cat. 15140122), and 2.5% Matrigel (Corning Inc., Corning, NY, cat. 354248) for the first three passages. All PDCs were cultured in complete DMEM/F-12 media containing advanced DMEM/F-12 (Invitrogen, cat. 12634028), 4.9% defined fetal bovine serum, heat inactivated (HyClone Laboratories Inc., Logan, UT, cat. SH30070.03HI), 389 ng/mL hydrocortisone (Sigma-Aldrich, cat. H4001), 9.7 ng/mL human EGF recombinant protein (Invitrogen, cat. PHG0313), 23.4 microg/mL adenine (Sigma-Aldrich, cat. A2786), 97.3 U/mL penicillin-streptomycin (Invitrogen, cat. 15140122), 1.9 mM L-glutamine (Invitrogen, cat. 25030081), and 9.7 microM Y-27632 dihydrochloride (Tocris Bioscience, Bristol, United Kingdom, cat. 1254). The PDCs were cultured in complete DMEM/F12 media without 10 microM Y-27632 dihydrochloride for at least two passages prior to the screen. The established cell lines NCI-H1341 and […] were cultured in DMEM/F-12, HEPES (Invitrogen, cat. 11330032), 5% defined fetal bovine serum (HyClone Laboratories Inc., cat. SH30070.03), ITS premix universal culture supplement [insulin (5 microg/mL), transferrin (5 microg/mL), and selenious acid (5 ng/mL)] […]

[1] = curve of first compound, second compound 0.1 µM
[2] = curve of first compound, second compound 0.316 µM
[3] = curve of first compound, second compound 1 µM
[4] = curve of first compound, second compound 3.16 µM
[5] = curve of first compound, second compound 10 µM
[6] = second compound 0.1 µM, first compound 0.0316 µM
[7] = second compound 0.1 µM, first compound 0.1 µM
[8] = second compound 0.1 µM, first compound 0.316 µM
[9] = second compound 0.1 µM, first compound 1 µM
[10] = second compound 0.1 µM, first compound 3.16 µM
[11] = second compound 0.1 µM, first compound 10 µM
[12] = second compound 0.316 µM, first compound 0.0316 µM
[13] = second compound 0.316 µM, first compound 0.1 µM
[14] = second compound 0.316 µM, first compound 0.316 µM
[15] = second compound 0.316 µM, first compound 1 µM
[16] = second compound 0.316 µM, first compound 3.16 µM
[17] = second compound 0.316 µM, first compound 10 µM
[18] = second compound 1 µM, first compound 0.0316 µM
[19] = second compound 1 µM, first compound 0.1 µM
[20] = second compound 1 µM, first compound 0.316 µM
[21] = second compound 1 µM, first compound 1 µM
[22] = second compound 1 µM, first compound 3.16 µM
[23] = second compound 1 µM, first compound 10 µM
[24] = second compound 3.16 µM, first compound 0.0316 µM
[25] = second compound 3.16 µM, first compound 0.1 µM
[26] = second compound 3.16 µM, first compound 0.316 µM
[27] = second compound 3.16 µM, first compound 1 µM
[28] = second compound 3.16 µM, first compound 3.16 µM
[29] = second compound 3.16 µM, first compound 10 µM
[30] = second compound 10 µM, first compound 0.0316 µM
[31] = second compound 10 µM, first compound 0.1 µM
[32] = second compound 10 µM, first compound 0.316 µM
[33] = second compound 10 µM, first compound 1 µM
[34] = second compound 10 µM, first compound 3.16 µM
[35] = second compound 10 µM, first compound 10 µM
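Also: spheroids exposed to compounds for seven days.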

SMILES	IC50 [1] [µM]	IC50 [2] [µM]	IC50 [3] [µM]	IC50 [4] [µM]	IC50 [5] [µM]	viability, T/C [6] [%]	viability, T/C [7] [%]	viability, T/C [8] [%]	viability, T/C [9] [%]	viability, T/C [10] [%]	viability, T/C [11] [%]	viability, T/C [12] [%]	viability, T/C [13] [%]	viability, T/C [14] [%]	viability, T/C [15] [%]	viability, T/C [16] [%]	viability, T/C [17] [%]	viability, T/C [18] [%]	viability, T/C [19] [%]	viability, T/C [20] [%]	other results
CC(C)c1c(-c2ccccc2)nc2c(C#N)c[nH]n2c1=O + CC(CO)NC(=O)c1cc(-c2ccc(Cl)cc2)nn(-c2cnn(C)c2)c1=O	> 10	> 10	> 10	> 10	> 10	110	101	97.6	98	98.2	85.5	105	101	104	102	93.3	91.7	105	96.4	107	viability, T/C [21]: 91.7%; viability, T/C [22]: 99.1%; viability, T/C [23]: 89.2%; viability, T/C [24]: 108%; viability, T/C [25]: 104%; viability, T/C [26]: 99.5%; viability, T/C [27]: 111%; viability, T/C [28]: 105%; viability, T/C [29]: 89.7%; viability, T/C [30]: 109%; viability, T/C [31]: 91.2%; viability, T/C [32]: 86.9%; viability, T/C [33]: 102%; viability, T/C [34]: 97.2%; viability, T/C [35]: 77%
CC[C@@]1(O)C(=O)OCc2c1cc1n(c2=O)Cc2cc3c(CN(C)C)c(O)ccc3nc2-1	–	–	–	–	–	–	–	–	–	–	–	–	–	–	–	–	–	–	–	–	viability, T/C (compound 0.000316 µM): 105% and 92.5% and 101%; viability, T/C (compound 0.001 µM): 101% and 96.7% and 108%; viability, T/C (compound 0.00316 µM): 65.5% and 69.2% and 88%; viability, T/C (compound 0.01 µM): 31.4% and 22.4% and 59.5%; viability, T/C (compound 0.0316 µM): 6.59% and 7.5% and 7.58%; viability, T/C (compound 0.1 µM): 6.75% and 6.73% and 5.44%; IC50 (curve of compound): 0.00536 µM and 0.00511 µM and 0.0117 µM
COc1cccc2c1C(=O)c1c(O)c3c(c(O)c1C2=O)CC(O)(C(=O)CO)CC3OC1CC(N)C(O)C(C)O1 (configuration not stated) + Cc1ccccc1N=Nc1ccc(NC(=O)c2ccnn2C)c(C)c1	< 0.0316	< 0.0316	< 0.0316	< 0.0316	< 0.0316	15.3	14.2	2.62	0.35	1.6	1.27	16	14.5	3.8	0.52	1.44	1.34	16	12.7	2.55	viability, T/C [21]: 0.36%; viability, T/C [22]: 1.75%; viability, T/C [23]: 1.27%; viability, T/C [24]: 15.9%; viability, T/C [25]: 13.5%; viability, T/C [26]: 2.36%; viability, T/C [27]: 0.36%; viability, T/C [28]: 1.22%; viability, T/C [29]: 0.78%; viability, T/C [30]: 13.2%; viability, T/C [31]: 10.1%; viability, T/C [32]: 1.82%; viability, T/C [33]: 0.82%; viability, T/C [34]: 1.07%; viability, T/C [35]: 1.04%
O=C(c1cc(Cc2n[nH]c(=O)c3ccccc23)ccc1F)N1CCN(C(=O)C2CC2)CC1 + Cc1cncc(-c2nc(NCCc3c[nH]c4ccccc34)c3ncn(C(C)C)c3n2)c1	6.62	7.17	6.44	3.07	< 0.0316	109	102	107	112	86.4	29.7	107	98.4	97.2	109	95	31.3	85.3	82.7	99.1	viability, T/C [21]: 87.2%; viability, T/C [22]: 81.9%; viability, T/C [23]: 30.3%; viability, T/C [24]: 54.4%; viability, T/C [25]: 60.1%; viability, T/C [26]: 62.5%; viability, T/C [27]: 60.1%; viability, T/C [28]: 49.8%; viability, T/C [29]: 24.6%; viability, T/C [30]: 15.5%; viability, T/C [31]: 19.7%; viability, T/C [32]: 17.1%; viability, T/C [33]: 17.1%; viability, T/C [34]: 17.5%; viability, T/C [35]: 15.2%
COc1ccc([C@@H](O)c2cc(-c3ncnc4cc(N5CCOCC5)ccc34)c(F)cc2Cl)nn1 + Cc1ccccc1N=Nc1ccc(NC(=O)c2ccnn2C)c(C)c1	8.29	7.98	6.55	5.96	< 0.0316	107	106	91	80	74	44.3	92.9	117	110	95.7	71.4	44.8	112	96	100	viability, T/C [21]: 78.9%; viability, T/C [22]: 60%; viability, T/C [23]: 44.2%; viability, T/C [24]: 85.4%; viability, T/C [25]: 92.9%; viability, T/C [26]: 83.2%; viability, T/C [27]: 69%; viability, T/C [28]: 66.4%; viability, T/C [29]: 38.9%; viability, T/C [30]: 46.2%; viability, T/C [31]: 49.9%; viability, T/C [32]: 47%; viability, T/C [33]: 48.3%; viability, T/C [34]: 38.9%; viability, T/C [35]: 26.2%
